In assay [1] the target is T1, CB1 receptor (Homo sapiens, UniProt P21554). As to the kind of experiment: DiscoveRx HitHunter cAMP XS+ assay in cAMP Hunter cell line, allosteric modulation of CP55,940 response. It is filed as cell-based. The note with it: for EC50: read-out: cAMP EC50. Here is the method: Once it was established that the cells were healthy and growing normally, cells were passaged from flasks using cell dissociation reagent buffer and seeded into white walled clear bottom 384-well microplates for compound profiling. For profiling, cells were seeded at a density of 10000 cells per well in a total volume of 20 μL and were allowed to adhere and recover overnight prior to compound addition. Cells were treated the following day using the protocols shown below. cAMP modulation was determined using the DiscoveRx HitHunter cAMP XS+ assay.
Media was aspirated from cells and replaced with 10 μL 1:1 HBSS/Hepes: cAMP XS+ Ab reagent. Agonist (CP55,940) dose curves were performed to determine the EC20 value for the testing with the compounds of the present technology. 5 μL of 4× agonist was added to each well with an equal concentration of vehicle present. EC20 agonist concentration was determined directly from agonist dose curve.
(§1) For allosteric determination, cells were preincubated with compound followed by agonist challenge at the EC20 concentration of the agonist. 5 μL of 4× compound was added to cells and incubated at 37° C. for 30 minutes. 5 μL of 4× EC20 agonist was added to cells and incubated at 37° C. for 30 minutes.
Signal Detection: After appropriate compound incubation, assay signal was generated through incubation with 20 μL cAMP XS+ED/CL lysis cocktail for one hour followed by incubation with 20 μL cAMP XS+EA reagent for three hours at room temperature. Microplates were read following signal generation with a PerkinElmer Envision™ instrument for chemiluminescent signal detection.
(§2) Data Analysis: Dose curves were plotted using GraphPad Prism or Activity Base. The percentage activity is calculated using the following formula: % Activity=100%×(1−(mean RLU of test sample−mean RLU of MAX control)/(mean RLU of vehicle control [EC20 for PAM]−mean RLU of MAXcontrol).
(§3) Agonist (CP55,940) dose curves were performed for the CNR1 PathHunter and cAMP Hunter cell lines. […] The cAMP assay was performed in the presence of 20 μM forskolin (EC80).
(§4) In Vitro Evaluation: The in vitro evaluation of the covalent allosteric modulators was performed using as described previously.

Assay [2] concerns the target T1, CB1 receptor. In words: β-arrestin recruitment in CNR1 PathHunter cell line, allosteric modulation of CP55,940 response. It is filed as cell-based. The note with it: Table 1, CP55,940 as agonist; for EC50: read-out: β-arrestin EC50. The procedure:
as §1, §2, §3, §4
(Recruitment of arrestin is a read-out of receptor activation apart from second messengers.)

Setting [3] is: Table 1, preincubation with compound, then CP55,940 challenge, 20 μM forskolin.

The results in this text go back to patent US9926275B2 (priority 2013, dated 2018).

A word on the EC50: it is the concentration giving half of the maximal effect.

T1 sequence (P21554 whole entry): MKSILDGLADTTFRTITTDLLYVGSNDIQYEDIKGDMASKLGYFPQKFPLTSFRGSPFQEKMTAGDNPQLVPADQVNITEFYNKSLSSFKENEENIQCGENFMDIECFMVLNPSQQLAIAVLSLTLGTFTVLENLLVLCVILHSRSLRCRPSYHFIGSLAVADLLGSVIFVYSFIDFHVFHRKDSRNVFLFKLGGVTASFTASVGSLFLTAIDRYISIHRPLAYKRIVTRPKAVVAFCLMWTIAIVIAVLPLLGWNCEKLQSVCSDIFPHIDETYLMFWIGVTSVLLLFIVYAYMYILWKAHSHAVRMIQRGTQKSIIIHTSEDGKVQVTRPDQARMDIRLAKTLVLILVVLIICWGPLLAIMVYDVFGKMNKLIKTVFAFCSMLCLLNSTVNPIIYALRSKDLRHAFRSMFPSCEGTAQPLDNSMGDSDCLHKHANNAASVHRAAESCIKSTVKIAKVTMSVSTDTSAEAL

Take `O=C(Nc1cccc(-c2cccc(N3CCCC3)n2)c1)Nc1ccc2ccccc2c1` [Compound 10x, 1-(Naphthalen-2-yl)-3-(3-(6-(pyrrolidin-1-yl)pyridin-2-yl)phenyl)urea]: in assay [1] (setting [3]), the cAMP % inhibition amounted to 68% and the EC50 was 1.83 µM. In assay [2], the β-arrestin % inhibition was found to be 119% and the EC50 is 1.91 µM.

For the compound `O=C(Nc1cccc(-c2cccc(N3CCCC3)n2)c1)N1CCc2ccccc2C1` [Compound 10y, N-(3-(6-(Pyrrolidin-1-yl)pyridin-2-yl)phenyl)-3,4-dihydroisoquinoline-2(1H)-carboxamide], the cAMP % inhibition in assay [1] (setting [3]) came to 2.55%. For the same compound, the EC50 in assay [1] was greater than 10 µM. In assay [2], the β-arrestin % inhibition is 50% and the EC50 was found to be 5.34 µM.

Turning to `O=C(Nc1cccc(-c2cccc(N3CCCC3)n2)c1)NC1CCCCC1` [Compound 10z, 1-Cyclohexyl-3-(3-(6-(pyrrolidin-1-yl)pyridin-2-yl)phenyl)urea], in assay [1] (setting [3]), the cAMP % inhibition was found to be 78% and the EC50 is 0.659 µM. Also, in assay [2], the β-arrestin % inhibition is 136% and the EC50 amounted to 0.333 ± 0.03 µM.

With `CN(C(=O)Nc1cccc(-c2cccc(N3CCCC3)n2)c1)c1ccc(Cl)cc1` [Compound 13a, 1-(4-Chlorophenyl)-1-methyl-3-(3-(6-(pyrrolidin-1-yl)pyridin-2-yl)phenyl)urea], in assay [1] (setting [3]), the cAMP % inhibition was 17% and the EC50 is 1.64 µM. Also, in assay [2], the β-arrestin % inhibition is on record as 99% and the concentration giving a half-maximal response (EC50) is 1.02 µM.

On to `O=C(Nc1cccc(-c2cccc(N3CCCC3)n2)c1)Oc1ccc(Cl)cc1` [Compound 13b, 4-Chlorophenyl (3-(6-(pyrrolidin-1-yl)pyridin-2-yl)phenyl)carbamate], for which, in assay [1] (setting [3]), the cAMP % inhibition was 3.5% and the EC50 is greater than 10 µM. In addition, in assay [2], the β-arrestin % inhibition is listed as 24% and the EC50 amounted to 5.37 µM.

Regarding `Cc1cc(Cl)ccc1OC(=O)Nc1cccc(-c2cccc(N3CCCC3)n2)c1` [Compound 13c, 4-Chloro-2-methylphenyl (3-(6-(pyrrolidin-1-yl)pyridin-2-yl)phenyl)carbamate], in assay [1] (setting [3]), the cAMP % inhibition came out at 24% and the EC50 is 3.05 µM. Also, in assay [2], the β-arrestin % inhibition is 39% and the EC50 is 3.07 µM.

As to `COC(=O)c1ccccc1NC(=O)Nc1cccc(-c2cccc(N3CCCC3)n2)c1` [Compound 15, Methyl 2-(3-(3-(6-(pyrrolidin-1-yl)pyridin-2-yl)phenyl)ureido)benzoate], in assay [1] (setting [3]), the cAMP % inhibition is 0.6% and the EC50 was greater than 10 µM. For the same compound, in assay [2], the β-arrestin % inhibition turned out to be 24% and the concentration giving a half-maximal response (EC50) was 8.52 µM.

As for `O=C(Nc1cccc(-c2cccc(N3CCCC3)n2)c1)Nc1ccccc1C(=O)O` [Compound 16, 2-(3-(3-(6-(Pyrrolidin-1-yl)pyridin-2-yl)phenyl)ureido)benzoic acid], in assay [1] (setting [3]), the cAMP % inhibition was 35% and the EC50 was greater than 10 µM. Also, in assay [2], the β-arrestin % inhibition was determined as 1.5% and the EC50 is greater than 10 µM.

Regarding `O=C(Nc1cccc(-c2cccc(N3CCCC3)n2)c1)Nc1ccccc1CO` [Compound 17, 1-(2-(Hydroxymethyl)phenyl)-3-(3-(6-(pyrrolidin-1-yl)pyridin-2-yl)phenyl)urea], in assay [1] (setting [3]), the cAMP % inhibition is 33% and the EC50 turned out to be 1.14 µM. Further, in assay [2], the β-arrestin % inhibition was found to be 106% and the EC50 came to 0.672 µM.

Take `O=C(Nc1cccc(-c2cccc(N3CCCC3)n2)c1)Nc1ccc(Cl)cc1I` [Compound 19a, 1-(4-Chloro-2-iodophenyl)-3-(3-(6-(pyrrolidin-1-yl)pyridin-2-yl)phenyl)urea]: in assay [1] (setting [3]), the cAMP % inhibition worked out at 53% and the EC50 turned out to be 1.27 µM. In addition, in assay [2], the β-arrestin % inhibition is recorded as 118% and the half-maximal effective concentration (EC50) amounted to 1.2 µM.

For `O=C(Nc1cccc(-c2cccc(N3CCCC3)n2)c1)Nc1ccc(Cl)c(I)c1` [Compound 19b, 1-(4-Chloro-3-iodophenyl)-3-(3-(6-(pyrrolidin-1-yl)pyridin-2-yl)phenyl)urea], in assay [1] (setting [3]), the cAMP % inhibition came out at 30% and the EC50 is greater than 10 µM. In addition, in assay [2], the β-arrestin % inhibition is reported as 120% and the EC50 is 0.126 µM.

Turning to `O=C(Nc1cccc(-c2cccc(N3CCCC3)n2)c1)Nc1ccc(Cl)cc1C#CCCOC1CCCCO1` (stereo not drawn) [Compound 21a, 1-(4-Chloro-2-(4-((tetrahydro-2H-pyran-2-yl)oxy)but-1-yn-1-yl)phenyl)-3-(3-(6-(pyrrolidin-1-yl)pyridin-2-yl)phenyl)urea], in assay [1] (setting [3]), the cAMP % inhibition was 9% and the EC50 is greater than 10 µM. Also, in assay [2], the β-arrestin % inhibition stood at 73% and the EC50 is 3.4 µM.

As for `O=C(Nc1cccc(-c2cccc(N3CCCC3)n2)c1)Nc1ccc(Cl)c(C#CCCOC2CCCCO2)c1` (stereo not drawn) [Compound 21b, 1-(4-Chloro-3-(4-((tetrahydro-2H-pyran-2-yl)oxy)but-1-yn-1-yl)phenyl)-3-(3-(6-(pyrrolidin-1-yl)pyridin-2-yl)phenyl)urea], in assay [1] (setting [3]), the cAMP % inhibition came out at 22% and the EC50 was greater than 10 µM. In addition, in assay [2], the β-arrestin % inhibition is given as 111% and the EC50 was determined as 0.208 µM.

Regarding `O=C(Nc1cccc(-c2cccc(N3CCCC3)n2)c1)Nc1ccc(Cl)cc1C#CCCO` [Compound 22a, 1-(4-Chloro-2-(4-hydroxybut-1-yn-1-yl)phenyl)-3-(3-(6-(pyrrolidin-1-yl)pyridin-2-yl)phenyl)urea], in assay [1] (setting [3]), the cAMP % inhibition turned out to be 49% and the EC50 was found to be 6.49 µM. Also, in assay [2], the β-arrestin % inhibition stood at 83% and the EC50 came to 4.89 µM.

Regarding `O=C(Nc1cccc(-c2cccc(N3CCCC3)n2)c1)Nc1ccc(Cl)c(C#CCCO)c1` [Compound 22b, 1-(4-Chloro-3-(4-hydroxybut-1-yn-1-yl)phenyl)-3-(3-(6-(pyrrolidin-1-yl)pyridin-2-yl)phenyl)urea], in assay [1] (setting [3]), the cAMP % inhibition worked out at 152% and the EC50 was 0.551 µM. Further, in assay [2], the β-arrestin % inhibition is listed as 123% and the EC50 stood at 0.149 µM.

Take `O=C(Nc1cccc(-c2cccc(N3CCCC3)n2)c1)Nc1ccc(Cl)cc1CCCCOC1CCCCO1` (stereo not drawn) [Compound 23a, 1-(4-Chloro-2-(4-((tetrahydro-2H-pyran-2-yl)oxy)butyl)phenyl)-3-(3-(6-(pyrrolidin-1-yl)pyridin-2-yl)phenyl)urea]: in assay [1] (setting [3]), the cAMP % inhibition was 41% and the EC50 came to 0.82 µM. Moreover, in assay [2], the β-arrestin % inhibition was found to be 117% and the EC50 came to 1.09 µM.

Consider `O=C(Nc1cccc(-c2cccc(N3CCCC3)n2)c1)Nc1ccc(Cl)c(CCCCOC2CCCCO2)c1` (stereo not drawn) [Compound 23b, 1-(4-Chloro-3-(4-((tetrahydro-2H-pyran-2-yl)oxy)butyl)phenyl)-3-(3-(6-(pyrrolidin-1-yl)pyridin-2-yl)phenyl)urea], for which, in assay [1] (setting [3]), the cAMP % inhibition is 55% and the EC50 is 0.354 µM. Also, in assay [2], the β-arrestin % inhibition was 121% and the EC50 is 0.771 µM.

`O=C(Nc1cccc(-c2cccc(N3CCCC3)n2)c1)Nc1ccccc1CCCCOC1CCCCO1` (stereo not drawn) [Compound 23c, 1-(3-(6-(Pyrrolidin-1-yl)pyridin-2-yl)phenyl)-3-(2-(4-((tetrahydro-2H-pyran-2-yl)oxy)butyl)phenyl)urea]: in assay [1] (setting [3]), the cAMP % inhibition was found to be 20% and the EC50 is greater than 10 µM. For the same compound, in assay [2], the β-arrestin % inhibition is recorded as 69% and the EC50 was determined as 6.19 µM.
